Test results as given in PubChem BioAssay (NCI).
Where “and” joins values, the source holds several entries; their conditions need not be identical. Identical values can stand only once.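 Exposure lasted 48 hours, with cells grown in 96-well plates and compounds tested at five concentrations. The concentration for 50% growth inhibition is given as GI50. TGI is the concentration that stops growth completely.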

Columns and labels:
Assay in all cases: NCI tumour cell line growth inhibition, 48 h
PC-3 prostate = system: PC-3 prostate
DU-145 prostate = system: DU-145 prostate
MDA-MB-435 = system: MDA-MB-435
MDA-MB-231 breast = system: MDA-MB-231 breast
NCI/ADR-RES ovarian = system: NCI/ADR-RES ovarian

SMILES | TGI (PC-3 prostate) | TGI (DU-145 prostate) | TGI (MDA-MB-435) | TGI (MDA-MB-231 breast) | TGI (NCI/ADR-RES ovarian) [µM] | GI50 (PC-3 prostate) | GI50 (DU-145 prostate) | GI50 (MDA-MB-435) | GI50 (MDA-MB-231 breast) | GI50 (NCI/ADR-RES ovarian)
Cc1cc(C)n(C2=NS(=O)(=O)c3ccccc3N2C)n1 | > 100 µM | > 100 µM | > 100 µM | > 100 µM | > 100 | – | – | – | – | –
CCNCCNc1cc(-c2ccc(C#N)cc2)c(C#N)c2nc3ccccc3n12 | 20.7 µM | 15.3 µM | 6.28 µM | 5.61 µM | 36 | 7.41 µM | 4.13 µM | 2.29 µM | 2.35 µM | 5.74 µM
Cc1cc2c(cc1Cl)S/C(=C/C(=O)O)C(Nc1cccc3nsnc13)=NS2(=O)=O | > 75.8 µM | > 57.3 µM | > 71 µM | > 69.4 µM | > 58.9 | 41 µM | > 16 µM | 56.2 µM | 47.4 µM | > 40.2 µM
COc1ccc(Nc2nccc(N3CCN(c4c5ccc(Cl)cc5nc5ccc(OC)cc45)CC3)n2)cc1 | – | > 100 µM | > 100 µM | > 100 µM | > 100 | – | 28.7 µM | 8.28 µM | 4.63 µM | 7.41 µM
COc1cc2nc(-c3ccc(C(F)(F)F)cc3)cc(OCCCN3CCCC3)c2cc1OC | 9.79 µM | > 46.6 µM | 15.1 µM | 8.23 µM | 39 | 1.14 µM | 0.992 µM | 1.15 µM | 0.532 µM | 0.47 µM
O=C1/C(=C/c2ccc([N+](=O)[O-])cc2)COc2ccc(O)cc21 | 7.27 µM | > 100 µM | 29.7 µM | 36.9 µM | > 100 | 2.58 µM | 13.5 µM | 5.21 µM | 4.77 µM | 16.9 µM
CC1OC(c2ccc3c(c2O)C(=O)C2=C(C3=O)C3(O)C(=O)CC(C)(O)CC3(O)C=C2)CC(O)C1O (centres undefined) | 65.7 µM | 29.1 µM | > 42.5 µM | 6.17 µM | 51.8 | – | – | – | – | –
Cc1cccc(/C(Br)=C2/OC(=O)c3ccccc32)c1 | > 100 µM | > 100 µM | > 100 µM | – | – | – | – | – | – | –
Cc1ccc(NC(=O)/C(Cc2cc(=O)oc3cc(O)ccc23)=N\NC(=O)C[N+](C)(C)C)cc1C | > 100 µM | > 100 µM | > 100 µM | > 100 µM | > 100 | – | – | – | – | –
CCOC(=O)N1CCN(CCCCCOc2ccccc2C2CCCCC2)CC1 | 13 µM | 32.3 µM | 15.1 µM | 21.5 µM | 5.66 | 2.6 µM | 14.4 µM | 3.88 µM | 5.1 µM | 2.05 µM
CCN(CC)c1ccc(/C=C/C2=[N+](C)c3ccccc3C2(C)C)c(C)c1 | 1.67 µM | 11.6 µM | 1.32 µM | 2.27 µM | 13 | 0.0225 µM | 0.0985 µM | 0.0653 µM | 0.101 µM | 2.24 µM
O=C(c1cccs1)C1NO[N+]([O-])=C1c1cccs1 (centres undefined) | 22.3 µM | 10.7 µM | 16.3 µM | 25 µM | 18.9 | 8.43 µM | 3.76 µM | 5.29 µM | 11.8 µM | 3.42 µM
O=C(NCCN1CCNCC1)c1ccc(Nc2nc3ccccc3c3occc23)cc1 | 29.8 µM | 12.5 µM | 8.51 µM | 25.8 µM | 46.5 | 11.1 µM | 3.44 µM | 3.1 µM | 11.8 µM | 21 µM
c1ccc(-c2nc(N3CCCNCC3)c3nc(-c4ccccc4)oc3n2)cc1 | – | 3.26 µM | 3.08 µM | 3.21 µM | 3.86 | – | 1.8 µM | 1.64 µM | 1.72 µM | 1.91 µM
CCOc1ccc(Nc2c3ccccc3nc3ccccc23)cc1 | 7.29 µM and 5.61 µM | 9.34 µM and 6.59 µM | 0.359 µM and 0.279 µM | 9.67 µM and 14.5 µM | 0.588 | 0.392 µM and 0.748 µM | 0.843 µM and 1.01 µM | 0.0382 µM and 0.0574 µM | 1.91 µM and 0.959 µM | 0.271 µM and 0.117 µM
O=C(/C=C/c1cccc(O)c1)c1cccc(-n2cc(-c3ccc4ccccc4c3)[nH]c2=O)c1 | 7.9 µM | 3.65 µM | 6.31 µM | 4.9 µM | 5.83 | 1.85 µM | 1.75 µM | 1.71 µM | 1.66 µM | 1.55 µM
[2H]c1nc(=Nc2cc(NC(=O)C=C)c(N(C)CCN(C)C)cc2OC)[nH]c(-c2cn(C([2H])([2H])[2H])c3ccccc23)c1[2H] | 3.5 µM | 11.8 µM | 3.09 µM | 2.81 µM | 5.02 | 1.61 µM | 1.51 µM | 1.62 µM | 1.27 µM | 1.39 µM
O=C(Cl)C1=C(c2ccccc2)C1c1ccccc1 (centres undefined) | > 100 µM | > 100 µM | > 100 µM | > 100 µM | – | – | – | – | – | –

SMILES | TGI (PC-3 prostate) | TGI (DU-145 prostate) | TGI (MDA-MB-435) | TGI (MDA-MB-231 breast) | TGI (NCI/ADR-RES ovarian) [µM] | GI50 (PC-3 prostate) | GI50 (DU-145 prostate) | GI50 (MDA-MB-435) | GI50 (MDA-MB-231 breast) | GI50 (NCI/ADR-RES ovarian)
Fc1ccc2nc(-c3cc(-c4ccc5c(c4)OCO5)n[nH]3)[nH]c2c1 | > 82.3 µM | > 53.1 µM | > 71.7 µM | 6.59 µM | > 100 | 3.61 µM | 5.84 µM | 4.49 µM | 2.01 µM | 3.99 µM
COc1cccc(COc2cc(-n3cnc4ccccc43)sc2C(N)=O)c1 | > 25 µM | > 25 µM | > 25 µM | > 25 µM | > 25 | > 25 µM | > 10.3 µM | 1.3 µM | 14.8 µM | 1.75 µM
CCOC(=O)c1c(SCCN2CCOCC2)n(-c2ccccc2)c(=S)n(-c2ccccc2)c1=O | – | – | > 100 µM | > 100 µM | – | – | – | – | – | –
C=CC1=C(C)C2=NC1=CC1=NC(=CC3=C(C)C4=C(O)[C@H](C(=O)OC)C(=C5NC(=C2)[C@@H](C)[C@@H]5CCC(=O)O)C4=N3)C(CC)=C1C | > 41.1 µM | > 100 µM | > 46.5 µM | > 60.5 µM | > 22.1 | – | – | – | – | –
COc1ccc(-c2cnoc2-c2cc(OC)c3c(c2)OCCO3)cc1 | > 100 µM | > 46.9 µM | – | – | 49.5 | 0.0377 µM | 0.0456 µM | – | 0.0509 µM | < 0.0132 µM
Cc1ccc(NC(=O)/C(Cc2nc3ccc([N+](=O)[O-])cc3[nH]c2=O)=N\NC(=O)C[n+]2ccccc2)c(C)c1 | > 100 µM | > 100 µM | > 100 µM | 86.4 µM | > 100 | – | – | – | – | –
Nc1cc(-c2ccc(Cl)cc2)nn1-c1nnc(/C=C/c2ccco2)c(=O)[nH]1 | > 75 µM | 28.2 µM | > 100 µM | > 100 µM | 10.5 | 8.95 µM | 4.5 µM | 5.9 µM | 11.2 µM | 1.48 µM
c1cnn2ncc(-c3ccnc(Nc4ccc5c(c4)OCCO5)n3)c2c1 | > 25 µM | 1.45 µM | 0.516 µM | > 25 µM | 1.65 | 0.0955 µM | 0.0844 µM | 0.0813 µM | 0.0914 µM | 0.0781 µM
Clc1ccc2c(c1)N(c1ncnc3ccc(-c4cnc5[nH]ncc5c4)cc13)CC2 | > 100 µM | > 100 µM | > 100 µM | > 100 µM | – | 0.458 µM | 0.351 µM | 0.804 µM | 0.719 µM | –
O=C1c2ccccc2-c2c1c1ccccc1c(=O)n2CCNCCn1c2c(c3ccccc3c1=O)C(=O)c1ccccc1-2 | – | > 25 µM | > 25 µM | > 25 µM | > 25 | – | > 25 µM | > 25 µM | 18.2 µM | > 25 µM
COC(=O)c1ccc2c(c1)C(=O)c1c-2n(CCCN=[N+]=[N-])c(=O)c2cc([N+](=O)[O-])ccc12 | > 100 µM | > 100 µM | > 100 µM | > 100 µM | > 100 | > 100 µM | 70.9 µM | > 100 µM | 58 µM | > 100 µM
Cc1ccc(-n2nc(C(C)(C)C)cc2NC(=O)NCc2cc(F)ccc2Oc2ccc3c(cnn3CCO)c2)cc1 | > 100 µM | > 100 µM | > 62.5 µM | > 58.9 µM | > 100 | > 10 µM and 5.28 µM | > 10 µM and 7.2 µM | 3.37 µM and 2.75 µM | 2.6 µM and 2.57 µM | > 10 µM and 7.5 µM
O=C1/C(=C/c2cccc([N+](=O)[O-])c2)Sc2scc(-c3ccc([N+](=O)[O-])cc3)[n+]21 | > 100 µM | > 100 µM | 37.5 µM | 72.5 µM | 89.2 | – | – | – | – | –
CC(C)Oc1ccc(C(=O)Cn2ccnc2)cc1-n1c(CN2CCN(C(=O)COc3ccc(Cl)cc3)CC2)nc2ccccc2c1=O | 37.2 µM | > 100 µM | 33.6 µM | 19.7 µM | > 100 | 9.44 µM | 9.59 µM | 15.6 µM | 4.32 µM | > 100 µM
O=C(O)c1ccccc1C(=O)c1ccc2c(c1)Cc1ccccc1-2 | > 100 µM | > 100 µM | > 100 µM | > 100 µM | > 100 | – | – | – | – | –
OCc1ccc(N2CCOCC2)cc1Cl | > 100 µM | > 100 µM | > 100 µM | > 100 µM | > 100 | > 100 µM | > 100 µM | > 100 µM | > 100 µM | > 100 µM
CSc1ccc(N(C)c2nc(C)nc3c2CCC3)cc1 | 51.6 µM | – | – | 72.4 µM | 12.6 | < 0.01 µM | – | – | < 0.01 µM | < 0.01 µM
